Assay results from US20250092360A1, “METHODS AND COMPOSITIONS FOR GENERATING SOMATOSTATIN+ INTERNEURONS FROM HUMAN FOREBRAIN NEURAL PROGENITOR CELLS” (Trailhead Biosystems Inc., priority 2023, published 2025).
Entries after “also recorded” stand apart in the source; their conditions may differ.

Tests used:
[1] = test system: human pluripotent stem cells; assay: HD-DoE stage 1, additional experiment: FEZF2 expression; assay type: cell-based; conditions: for impact on expression of FEZF2: dynamic profile, in words; for factor contribution, expression of FEZF2: positive impact, additional stage 1 experiment optimized for FEZF2
Outline: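 Human pluripotent stem cells were exposed for three days to DoE-designed combinations of effectors in basal medium, including LDN193189, PD173074, BLU9931, purmorphamine, CHIR99021, XAV939, tofacitinib and GO6983 among others. Gene expression was measured by qPCR. Values were normalized and modelled by partial least squares regression against the effector design.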

[2] = test system: medial ganglionic eminence (MGE)-derived neural progenitors; assay: HD-DoE stage 4, 12-factor experiment: SOX6 expression; assay type: cell-based, human; conditions: for impact on expression of SOX6: dynamic profile, in words; for factor contribution, expression of SOX6: significant negative effect, model optimized for maximal SOX6
[3] = test system: stage 2 neural stem cells; assay: Factor criticality analysis, stage 3 recipe; assay type: cell-based, human; conditions: other five stage 3 factors present
[4] = test system: stage 2 neural stem cells; assay: HD-DoE stage 3 experiment: ASCL1, LHX6, DLX1 expression; assay type: cell-based, human

SMILES: c1ccc2c(-c3cnn4cc(-c5ccc(N6CCNCC6)cc5)cnc34)ccnc2c1 [LDN193189]
- impact on expression of FEZF2 [1]: positive impact
- factor contribution, expression of FEZF2 [1]: 18
- impact on expression of SOX6 [2]: negative effect
- factor contribution, expression of SOX6 [2]: 9.8

SMILES: O=C(NOC[C@H](O)CO)c1ccc(F)c(F)c1Nc1ccc(I)cc1F [PD0325901]
- impact on expression of FEZF2 [1]: positive impact
- factor contribution, expression of FEZF2 [1]: 15
- impact on expression of SOX6 [2]: negative effect
- factor contribution, expression of SOX6 [2]: 5.1

SMILES: c1ccc2c(Oc3nc(Nc4ccc(N5CCOCC5)cc4)c4ncn(C5CCCCC5)c4n3)cccc2c1 [Purmorphamine]
- impact on expression of FEZF2 [1]: positive impact
- factor contribution, expression of FEZF2 [1]: 11
- expression level of DLX1 when the factor is removed ([3]; 220 with all six factors): stayed the same
- expression level of LHX6 when the factor is removed ([3]; 240 with all six factors): 190
- expression level of ASCL1 when the factor is removed ([3]; 1650 with all six factors): 1200
- impact on expression of ASCL1 ([4]; dynamic profile, in words): positive trends; also recorded: Positive impact
- impact on expression of DLX1 ([4]; dynamic profile, in words): did not have a significant negative impact
- impact on expression of LHX6 ([4]; dynamic profile, in words): positive trends; also recorded: Positive impact
- factor contribution, expression of ASCL1 ([4]; positive, model optimized for maximum ASCL1 at 1700): 12.7
